Laboratory results taken from US20020173538A1, “Method for sensitizing cancer cells to cancer therapies with a mevalonate-reducing compound” (priority 2000, published 2002).
Where two headings read alike, the source gives them in different places. Marks after values point to notes of the source that are not given here.

What was measured:
Hep 3B cells = test: MTT cell viability assay, Hep 3B cells (serum-free DMEM)
Source text: Human hepatoma cell lines Hep G2 and Hep 3 were chosen as the in vitro models of hepatocytes and hepatoma, respectively.

Hep 3B/T2 cells = test: Tumor growth of Hep 3B/T2 cells in nude mice; assay type: in vivo, BALB/c-nu/nu nude mice; conditions: for Tumor size: LOV 75 mg/kg/day p.o. days 8-14 and/or taxol 120 μg/kg/day i.p. days 15-19, n = 3
[1] = no lovastatin 48 hr, then taxol 10 nM 48 hr
[2] = no lovastatin 72 hr, then taxol 2 nM 72 hr
[3] = no lovastatin 72 hr, then taxol 5 nM 48 hr
[4] = no lovastatin 72 hr, then taxol 5 nM 72 hr
[5] = no lovastatin 72 hr, then taxol 10 nM 72 hr

## CC(=O)O[C@H]1C(=O)[C@@]2(C)[C@H]([C@H](OC(=O)c3ccccc3)[C@]3(O)C[C@H](OC(=O)[C@H](O)[C@@H](NC(=O)c4ccccc4)c4ccccc4)C(C)=C1C3(C)C)[C@]1(OC(C)=O)CO[C@@H]1C[C@@H]2O [Taxol, paclitaxel]
Hep 3B cells; Homo sapiens, Hep3B, 72 h, read-out: Cell viability, taxol 2 nM, 72 hr
  viability at 0.002 µM: 94 ± 3.6%
Hep 3B cells; Homo sapiens, Hep3B, 72 h, read-out: Cell viability, taxol 2 nM, 72 hr, Table 9
  viability at 0.002 µM: 94 ± 3.6%
Hep 3B cells; Homo sapiens, Hep3B, 72 h, read-out: Cell viability, taxol 5 nM, 72 hr
  viability at 0.005 µM: 91.7 ± 3.7%
Hep 3B cells; Homo sapiens, Hep3B, 72 h, read-out: Cell viability, taxol 5 nM, 72 hr, Table 9
  viability at 0.005 µM: 91.7 ± 3.7%
Hep 3B cells; Homo sapiens, Hep3B, 72 h, read-out: Cell viability, taxol 10 nM, 72 hr
  viability at 0.01 µM: 88.5 ± 2.4%
Hep 3B cells; Homo sapiens, Hep3B, 72 h, read-out: Cell viability, taxol 10 nM, 72 hr, Table 9
  viability at 0.01 µM: 88.5 ± 2.4%
Hep 3B cells; Homo sapiens, Hep3B, 72 h, read-out: Cell viability, taxol 20 nM, 72 hr
  viability at 0.02 µM: 85.6 ± 1.1%
Hep 3B cells; Homo sapiens, Hep3B, 72 h, read-out: Cell viability, taxol 50 nM, 72 hr
  viability at 0.05 µM: 71.2 ± 4.2%
Hep 3B cells; Homo sapiens, Hep3B, 72 h, read-out: Cell viability, taxol 100 nM, 72 hr
  viability at 0.1 µM: 52.7 ± 2.8%
Hep 3B cells; Homo sapiens, Hep3B, 72 h, read-out: Cell viability, taxol 200 nM, 72 hr
  viability at 0.2 µM: 47 ± 1%
Hep 3B cells; Homo sapiens, Hep3B, 72 h, read-out: Cell viability, taxol 500 nM, 72 hr
  viability at 0.5 µM: 32.2 ± 4.7%
Hep 3B cells; Homo sapiens, Hep3B, 72 h, read-out: Cell viability, taxol 1000 nM, 72 hr
  viability at 1 µM: 24.6 ± 2.9%
Hep 3B cells; Homo sapiens, Hep3B, 72 h, read-out: IC50 (cell viability), 72 hr, Table 8
  IC50: 147 ± 14.2 nM
Hep 3B cells; Homo sapiens, Hep3B, 72 h, read-out: IC50 (cell viability), 72 hr, Table 9
  IC50: 43.5 nM
Hep 3B cells; Homo sapiens, Hep3B, 96 h, read-out: Cell viability, taxol 2 nM alone, 96 hr, Table 10
  viability at 0.002 µM: 92.6 ± 1.9%
Hep 3B cells; Homo sapiens, Hep3B, 96 h, read-out: Cell viability, taxol 2 nM, 96 hr
  viability at 0.002 µM: 94.1 ± 7.9%
Hep 3B cells; Homo sapiens, Hep3B, 96 h, read-out: Cell viability, taxol 5 nM alone, 96 hr, Table 10
  viability at 0.005 µM: 79.5 ± 4.6%
Hep 3B cells; Homo sapiens, Hep3B, 96 h, read-out: Cell viability, taxol 5 nM, 96 hr
  viability at 0.005 µM: 92.4 ± 4.8%
Hep 3B cells; Homo sapiens, Hep3B, 96 h, read-out: Cell viability, taxol 10 nM alone, 96 hr, Table 10
  viability at 0.01 µM: 60.3 ± 3.4%
Hep 3B cells; Homo sapiens, Hep3B, 96 h, read-out: Cell viability, taxol 10 nM, 96 hr
  viability at 0.01 µM: 82.3 ± 6.6%
Hep 3B cells; Homo sapiens, Hep3B, 96 h, read-out: IC50 (cell viability), 96 hr
  IC50: 28.2 nM
Hep 3B cells; Homo sapiens, Hep3B, 120 h, read-out: Cell viability, taxol 2 nM, 120 hr
  viability at 0.002 µM: 94.2 ± 2.5%
Hep 3B cells; Homo sapiens, Hep3B, 120 h, read-out: Cell viability, taxol 5 nM, 120 hr
  viability at 0.005 µM: 82.7 ± 3.7%
Hep 3B cells; Homo sapiens, Hep3B, 120 h, read-out: Cell viability, taxol 10 nM, 120 hr
  viability at 0.01 µM: 71.9 ± 4.6%
Hep 3B cells; Homo sapiens, Hep3B, 120 h, read-out: IC50 (cell viability), 120 hr
  IC50: 17.8 nM
Hep 3B cells; no lovastatin 48 hr, then taxol 2 nM 48 hr
  Cell viability: 102.4 ± 4.7^a % of control
Hep 3B cells; no lovastatin 48 hr, then taxol 5 nM 48 hr
  Ratio, inhibition (%) Hep 3B/inhibition (%) Hep G2: 0.3***
Hep 3B cells; [1]
  Cell viability: 76.3 ± 1.3^c % of control
  Ratio, inhibition (%) Hep 3B/inhibition (%) Hep G2: 0.6***
Hep 3B cells; no lovastatin 72 hr, then taxol 2 nM 48 hr
  Ratio, inhibition (%) Hep 3B/inhibition (%) Hep G2: 0.4***
Hep 3B cells; [2]
  Cell viability: 91.1 ± 1.1^b % of control
  Ratio, inhibition (%) Hep 3B/inhibition (%) Hep G2: 0.4*
Hep 3B cells; [3]
  Cell viability: 86.9 ± 1.3^b % of control
  Ratio, inhibition (%) Hep 3B/inhibition (%) Hep G2: 0.4***
Hep 3B cells; [4]
  Cell viability: 96.5 ± 0.6^a % of control
  Ratio, inhibition (%) Hep 3B/inhibition (%) Hep G2: 0.1***
Hep 3B cells; no lovastatin 72 hr, then taxol 10 nM 48 hr
  Ratio, inhibition (%) Hep 3B/inhibition (%) Hep G2: 0.4**
Hep 3B cells; [5]
  Cell viability: 78.0 ± 0.4^c % of control
  Ratio, inhibition (%) Hep 3B/inhibition (%) Hep G2: 0.6**
Hep 3B cells; taxol 2 nM alone, 96 hr, Table 10
  Ratio, inhibition (%) Hep 3B/inhibition (%) Hep G2: 0.3**
Hep 3B cells; taxol 2 nM, 48 hr
  Ratio, inhibition (%) Hep 3B/inhibition (%) Hep G2: 1.3*
Hep 3B cells; taxol 2 nM, 72 hr
  Ratio, inhibition (%) Hep 3B/inhibition (%) Hep G2: 0.6*
Hep 3B cells; taxol 5 nM alone, 96 hr, Table 10
  Ratio, inhibition (%) Hep 3B/inhibition (%) Hep G2: 0.4**
Hep 3B cells; taxol 5 nM, 48 hr
  Ratio, inhibition (%) Hep 3B/inhibition (%) Hep G2: 0.3**
Hep 3B cells; taxol 5 nM, 72 hr
  Ratio, inhibition (%) Hep 3B/inhibition (%) Hep G2: 0.2**
Hep 3B cells; taxol 10 nM alone, 96 hr, Table 10
  Ratio, inhibition (%) Hep 3B/inhibition (%) Hep G2: 0.5***
Hep 3B cells; taxol 10 nM, 48 hr
  Ratio, inhibition (%) Hep 3B/inhibition (%) Hep G2: 0.4***
Hep 3B cells; taxol 10 nM, 72 hr
  Ratio, inhibition (%) Hep 3B/inhibition (%) Hep G2: 0.2***
Hep 3B cells; taxol 20 nM, 48 hr
  Ratio, inhibition (%) Hep 3B/inhibition (%) Hep G2: 0.3***
Hep 3B cells; taxol 20 nM, 72 hr
  Ratio, inhibition (%) Hep 3B/inhibition (%) Hep G2: 0.2***
Hep 3B cells; taxol 50 nM, 48 hr
  Ratio, inhibition (%) Hep 3B/inhibition (%) Hep G2: 0.3***
Hep 3B cells; taxol 50 nM, 72 hr
  Ratio, inhibition (%) Hep 3B/inhibition (%) Hep G2: 0.4***
Hep 3B cells; taxol 100 nM, 48 hr
  Ratio, inhibition (%) Hep 3B/inhibition (%) Hep G2: 0.4**
Hep 3B cells; taxol 100 nM, 72 hr
  Ratio, inhibition (%) Hep 3B/inhibition (%) Hep G2: 0.6**
Hep 3B cells; taxol 200 nM, 48 hr
  Ratio, inhibition (%) Hep 3B/inhibition (%) Hep G2: 0.5**
Hep 3B cells; taxol 200 nM, 72 hr
  Ratio, inhibition (%) Hep 3B/inhibition (%) Hep G2: 0.6**
Hep 3B cells; taxol 500 nM, 48 hr
  Ratio, inhibition (%) Hep 3B/inhibition (%) Hep G2: 0.6**
Hep 3B cells; taxol 500 nM, 72 hr
  Ratio, inhibition (%) Hep 3B/inhibition (%) Hep G2: 0.8**
Hep 3B cells; taxol 1000 nM, 48 hr
  Ratio, inhibition (%) Hep 3B/inhibition (%) Hep G2: 0.5**
Hep 3B cells; taxol 1000 nM, 72 hr
  Ratio, inhibition (%) Hep 3B/inhibition (%) Hep G2: 0.8**
Hep 3B/T2 cells; Cycle 1 (Day 42), LOV 37.5 mg/kg/day p.o. days 28-34 and 49-55 and/or taxol 120 μg/kg/2 day i.p. day 36, 38, 40, 57, 59, 61
  percentage of inhibition of tumor size: (−54.2%
Hep 3B/T2 cells; Day 8
  Tumor size: 0.111 cm^3
Hep 3B/T2 cells; Day 11
  Tumor size: 0.125 cm^3
Hep 3B/T2 cells; Day 17
  Tumor size: 0.063 cm^3
Hep 3B/T2 cells; Day 26
  Tumor size: 0.064 cm^3
Hep 3B/T2 cells; Day 29
  Tumor size: 0.137 cm^3
Hep 3B/T2 cells; Day 35 after inoculation, p.o. lovastatin 37.5 mg/kg/day (days 28-34, 49-55) and/or i.p. taxol 120 μg/kg/2 day (days 36, 38, 40, 57, 59, 61), mean ± SEM
  Tumor size (1 × w^2 × 0.52 cm^3) Day 35: 0.400 cm^3
Hep 3B/T2 cells; Day 38 after inoculation, p.o. lovastatin 37.5 mg/kg/day (days 28-34, 49-55) and/or i.p. taxol 120 μg/kg/2 day (days 36, 38, 40, 57, 59, 61), mean ± SEM
  Tumor size (1 × w^2 × 0.52 cm^3) Day 38: 0.415 cm^3
Hep 3B/T2 cells; Day 42 after inoculation, p.o. lovastatin 37.5 mg/kg/day (days 28-34, 49-55) and/or i.p. taxol 120 μg/kg/2 day (days 36, 38, 40, 57, 59, 61), mean ± SEM
  Tumor size (1 × w^2 × 0.52 cm^3) Day 42: 0.465 cm^3
Hep 3B/T2 cells; Day 49 after inoculation, p.o. lovastatin 37.5 mg/kg/day (days 28-34, 49-55) and/or i.p. taxol 120 μg/kg/2 day (days 36, 38, 40, 57, 59, 61), mean ± SEM
  Tumor size (1 × w^2 × 0.52 cm^3) Day 49: 0.811 cm^3
Hep 3B/T2 cells; Day 56 after inoculation, p.o. lovastatin 37.5 mg/kg/day (days 28-34, 49-55) and/or i.p. taxol 120 μg/kg/2 day (days 36, 38, 40, 57, 59, 61), mean ± SEM
  Tumor size (1 × w^2 × 0.52 cm^3) Day 56: 0.996 cm^3
Hep 3B/T2 cells; Day 63 after inoculation, p.o. lovastatin 37.5 mg/kg/day (days 28-34, 49-55) and/or i.p. taxol 120 μg/kg/2 day (days 36, 38, 40, 57, 59, 61), mean ± SEM
  Tumor size (1 × w^2 × 0.52 cm^3) Day 63: 1.424 cm^3
